Measurements published in US11013780B2, “Methods of treating female infertility” (Myovant Sciences GmbH, priority 2016, dated 2021).
Where “and” joins values, the source holds several entries; their conditions need not be identical. Equal values may be shown once. Read-outs that look alike come from different tables or passages of the source. Where a SMILES comes first, the peptide text is derived from it. [ ]: non-standard residue; d: D form. Arg(Me) = CNC(=N)NCCC[C@H](N)C(=O)O; Hyp = O=C(O)[C@@H]1C[C@@H](O)CN1; azaGly = NNC(=O)O

Key:
[1] = target: CYP2C9 (Homo sapiens, UniProt P11712); experiment: Inhibition of recombinant CYP2C9; type: in vitro ADME
[2] = In vitro distribution into blood cells, dogs; type: in vitro ADME
Experimental: (§1) The in vitro distribution ratios of [^14C]API-MA into the blood cells at the concentrations of 0.01, 0.1, 1, and 10 μg/mL API-FB (free form) were 7.8%, 8.0%, 7.1%, and 4.8% for rats, 2.4%, 2.0%, 1.6%, and 1.2% for dogs, and 2.0%, 0.0%, 0.0%, and 0.5% for humans, respectively. […] The in vitro plasma protein binding ratios of [^14C]API-FB in rats, dogs, monkeys, and humans were determined by the ultracentrifugation method. In addition, the protein binding to human serum albumin (HSA), α1-acid glycoprotein (AGP), and HSA/AGP was investigated. […] In rats and dogs, a slight decrease in the binding ratio at the concentration range between 0.1 and 1.0 μg/mL API-FB was observed. In monkeys and humans, the binding was independent of the drug concentrations from 0.01 to 10 μg/mL API-FB.

[3] = target: human KISS1R (Homo sapiens, UniProt Q969F8); experiment: Competitive binding assay, human KISS1R; parameters: expressed in transfected cells
Description: The binding affinity of API-MA to membrane fractions of KISS1R-expressing recombinant cells was examined in a competitive binding assay.

[4] = target: CYP3A4 (Homo sapiens, UniProt P08684); experiment: Inhibition of recombinant CYP3A4; type: in vitro ADME
[5] = Single dose PK, phase 1, healthy Japanese men; type: in vivo, human; details: for AUC(0-inf) / CL/F / Cmax / half-life / Tmax / dose excreted: male, human; for AUC(0-inf) / CL/F / Cmax / half-life / Tmax: plasma; for dose excreted: urine
Experimental: Thirty-seven healthy Japanese male subjects aged 50 to 74 years were enrolled into nine cohorts. Subjects enrolled in the first […] cohorts received 0.001, 0.004, 0.01, 0.04, 0.1, 0.25 or 0.5 mg of API-MA or placebo by single SC bolus. In the 0.001 mg cohort, 3 subjects received API-MA and two received placebo. In the remaining cohorts, 3 subjects received API-MA and one received placebo. Subjects enrolled in the eighth and ninth cohorts received 0.25 or 0.5 mg of API-MA or placebo by single 2-hour SC infusion. In both cohorts, 3 subjects received API-MA and one received placebo. The plasma PK analysis set consisted of 31 subjects (bolus cohorts: 25; infusion cohorts: 6), and the urine PK analysis set consisted of 35 subjects (bolus cohorts: 27; infusion cohorts: 8).
To measure urinary excretion of API-MA, urine specimens were collected at the following nominal times: predose, 0 to 4, 4 to 8, 8 to 12, 12 to 24, 24 to 36, 36 to 48 and 48 to 72 hours postdose.

[6] = In vitro distribution into blood cells, humans; type: in vitro ADME
Experimental: as §1

[7] = test system: serum LH and PSA; experiment: 1-month depot pharmacodynamics, prostate cancer patients; type: in vivo, human
Experimental: Nine patients with prostate cancer were enrolled in another study, three in each dose group (6, 12, and 24 mg). Patients received API-MA as a single 1-month depot injection that was intended to initiate both a high-burst release of API-MA and rapid stimulation of hypothalamic-pituitary-gonadal axis. Overall, 4 of 9 patients received concomitant GnRH therapy. Assessments of pharmacodynamics included LH concentrations and serum PSA concentrations. Results were grouped based on patients who were or were not receiving concomitant GnRH therapy.

[8] = In vitro distribution into blood cells, rats; type: in vitro ADME
Experimental: as §1

[9] = in vitro; type: in vitro ADME, rats, dogs, monkeys, humans; details: rat, dog, monkey, human, plasma
Experimental: as §1

[10] = dog, in vivo; cited from earlier work
[11] = sc, 0.001 mg, single SC bolus 0.001 mg, mean
[12] = sc, 0.004 mg, single SC bolus 0.004 mg, mean
[13] = sc, 0.01 mg, single SC bolus 0.01 mg, mean
[14] = sc, 0.04 mg, single SC bolus 0.04 mg, mean
[15] = sc, 0.1 mg, single SC bolus 0.1 mg, mean
[16] = sc, 0.25 mg, single 2-hour SC INF 0.25 mg (plasma N = 1)
[17] = sc, 0.25 mg, single SC bolus 0.25 mg, mean
[18] = sc, 0.5 mg, single 2-hour SC INF 0.5 mg, mean
[19] = sc, 0.5 mg, single SC bolus 0.5 mg, mean

Sequence of CYP3A4 (P08684 whole entry): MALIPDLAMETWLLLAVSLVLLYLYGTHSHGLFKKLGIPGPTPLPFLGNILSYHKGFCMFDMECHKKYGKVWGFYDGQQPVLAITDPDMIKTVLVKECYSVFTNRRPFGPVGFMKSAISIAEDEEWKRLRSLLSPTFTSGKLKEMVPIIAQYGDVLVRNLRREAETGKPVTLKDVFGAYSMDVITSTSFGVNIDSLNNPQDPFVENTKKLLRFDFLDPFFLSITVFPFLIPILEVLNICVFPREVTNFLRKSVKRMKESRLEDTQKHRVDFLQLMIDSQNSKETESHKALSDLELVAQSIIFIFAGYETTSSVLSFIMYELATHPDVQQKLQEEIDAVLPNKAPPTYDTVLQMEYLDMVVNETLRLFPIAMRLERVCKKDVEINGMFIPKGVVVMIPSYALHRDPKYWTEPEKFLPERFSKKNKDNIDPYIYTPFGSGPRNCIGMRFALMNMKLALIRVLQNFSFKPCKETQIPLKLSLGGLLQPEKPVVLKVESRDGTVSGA
Sequence of human KISS1R (Q969F8 whole entry): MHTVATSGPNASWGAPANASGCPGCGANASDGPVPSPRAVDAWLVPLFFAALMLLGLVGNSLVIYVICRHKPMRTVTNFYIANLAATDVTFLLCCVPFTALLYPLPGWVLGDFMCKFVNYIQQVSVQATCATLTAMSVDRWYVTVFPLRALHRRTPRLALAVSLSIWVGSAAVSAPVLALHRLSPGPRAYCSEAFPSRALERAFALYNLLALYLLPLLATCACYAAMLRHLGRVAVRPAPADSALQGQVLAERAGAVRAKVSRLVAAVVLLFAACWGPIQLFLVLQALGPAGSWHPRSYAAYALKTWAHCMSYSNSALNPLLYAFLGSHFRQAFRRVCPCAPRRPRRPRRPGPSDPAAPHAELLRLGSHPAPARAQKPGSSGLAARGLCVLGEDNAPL
Sequence of CYP2C9 (P11712 whole entry): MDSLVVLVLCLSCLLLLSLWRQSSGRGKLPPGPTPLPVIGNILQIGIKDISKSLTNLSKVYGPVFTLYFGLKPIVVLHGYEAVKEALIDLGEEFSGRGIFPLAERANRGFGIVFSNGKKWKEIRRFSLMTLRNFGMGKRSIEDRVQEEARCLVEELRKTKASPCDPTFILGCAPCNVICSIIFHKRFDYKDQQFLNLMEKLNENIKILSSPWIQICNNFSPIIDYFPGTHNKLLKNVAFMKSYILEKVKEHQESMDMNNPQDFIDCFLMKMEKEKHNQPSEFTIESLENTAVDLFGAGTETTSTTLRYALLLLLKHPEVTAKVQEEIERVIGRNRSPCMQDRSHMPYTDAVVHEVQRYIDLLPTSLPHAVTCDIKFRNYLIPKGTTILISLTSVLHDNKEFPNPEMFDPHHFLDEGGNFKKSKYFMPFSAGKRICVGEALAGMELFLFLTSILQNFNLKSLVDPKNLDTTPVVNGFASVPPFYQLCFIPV

CC(=O)O.CNC(=N)NCCC[C@H](NC(=O)[C@H](CC(C)C)NC(=O)NNC(=O)[C@H](Cc1ccccc1)NC(=O)[C@@H](NC(=O)[C@H](CC(N)=O)NC(=O)[C@@H]1C[C@@H](O)CN1C(=O)[C@@H](Cc1ccc(O)cc1)NC(C)=O)[C@@H](C)O)C(=O)N[C@@H](Cc1c[nH]c2ccccc12)C(N)=O [API-MA, 2-(N-Acetyl-D-tyrosyl-trans-4-hydroxy-L-prolyl-Lasparaginyl-L-threonyl-L-phenylalanyl)-hydrazinocarbonyl-L-leucyl-Nω-methyl-L-arginyl-L-tryptophanamide monoacetate] (Ac-[dY][Hyp]NTF[azaGly]L[Arg(Me)]W-NH2)
IC50 [1]: > 7.78 nM
Distribution ratio into blood cells ([2]; 0.01 μg/mL API-FB): 2.4%
Distribution ratio into blood cells ([2]; 0.1 μg/mL API-FB): 2.0%
Distribution ratio into blood cells ([2]; 1 μg/mL API-FB): 1.6%
Distribution ratio into blood cells ([2]; 10 μg/mL API-FB): 1.2%
IC50 [3]: 0.23 nM
IC50 [4]: > 7.78 nM
Time by which urinary excretion was essentially complete ([5]; cumulative urinary excretion): ≤ 24 h
AUC(0-inf) [5, 11]: 0.0541 ng·h/mL
CL/F [5, 11]: 310 mL/min
Cmax [5, 11]: 0.0201 ng/mL
half-life ([5]; sc, 0.001 mg, single SC bolus 0.001 mg, mean, read-out: T½ (converted)): 1.59 h
Tmax ([5]; sc, 0.001 mg, single SC bolus 0.001 mg, read-out: Tmax, median (range)): 0.5 h
AUC(0-inf) [5, 12]: 0.205 ng·h/mL
CL/F [5, 12]: 330 mL/min
Cmax [5, 12]: 0.00617 ng/mL
half-life ([5]; sc, 0.004 mg, single SC bolus 0.004 mg, mean, read-out: T½ (converted)): 1.91 h
Tmax ([5]; sc, 0.004 mg, single SC bolus 0.004 mg, read-out: Tmax, median (range)): 0.5 h
AUC(0-inf) [5, 13]: 0.671 ng·h/mL
CL/F [5, 13]: 250 mL/min
Cmax [5, 13]: 0.221 ng/mL
half-life ([5]; sc, 0.01 mg, single SC bolus 0.01 mg, mean, read-out: T½ (converted)): 1.82 h
Tmax ([5]; sc, 0.01 mg, single SC bolus 0.01 mg, read-out: Tmax, median (range)): 0.5 h
AUC(0-inf) [5, 14]: 2.61 ng·h/mL
CL/F [5, 14]: 278 mL/min
Cmax [5, 14]: 0.966 ng/mL
half-life ([5]; sc, 0.04 mg, single SC bolus 0.04 mg, mean, read-out: T½ (converted)): 3.35 h
Tmax ([5]; sc, 0.04 mg, single SC bolus 0.04 mg, read-out: Tmax, median (range)): 0.5 h
AUC(0-inf) [5, 15]: 5.79 ng·h/mL
CL/F [5, 15]: 298 mL/min
Cmax [5, 15]: 2.42 ng/mL
half-life ([5]; sc, 0.1 mg, single SC bolus 0.1 mg, mean, read-out: T½ (converted)): 3.58 h
Tmax ([5]; sc, 0.1 mg, single SC bolus 0.1 mg, read-out: Tmax, median (range)): 0.375 h
AUC(0-inf) [5, 16]: 13.3 ng·h/mL
CL/F [5, 16]: 313 mL/min
Cmax [5, 16]: 4.02 ng/mL
Tmax ([5]; sc, 0.25 mg, single 2-hour SC INF 0.25 mg (plasma N = 1), read-out: Tmax, median (range)): 2.25 h
half-life ([5]; sc, 0.25 mg, single 2-hour SC INF 0.25 mg (plasma N = 1), read-out: T½ (converted)): 3.77 h
AUC(0-inf) [5, 17]: 18.3 ng·h/mL
CL/F [5, 17]: 228 mL/min
Cmax [5, 17]: 5.9 ng/mL
half-life ([5]; sc, 0.25 mg, single SC bolus 0.25 mg, mean, read-out: T½ (converted)): 4.09 h
Tmax ([5]; sc, 0.25 mg, single SC bolus 0.25 mg, read-out: Tmax, median (range)): 0.75 h
AUC(0-inf) [5, 18]: 34.6 ng·h/mL
CL/F [5, 18]: 243 mL/min
Cmax [5, 18]: 8.23 ng/mL
half-life ([5]; sc, 0.5 mg, single 2-hour SC INF 0.5 mg, mean, read-out: T½ (converted)): 4.02 h
Tmax ([5]; sc, 0.5 mg, single 2-hour SC INF 0.5 mg, read-out: Tmax, median (range)): 2.5 h
AUC(0-inf) [5, 19]: 30 ng·h/mL
CL/F [5, 19]: 282 mL/min
Cmax [5, 19]: 9.05 ng/mL
half-life ([5]; sc, 0.5 mg, single SC bolus 0.5 mg, mean, read-out: T½ (converted)): 4.27 h
Tmax ([5]; sc, 0.5 mg, single SC bolus 0.5 mg, read-out: Tmax, median (range)): 0.5 h
Tmax ([5]; sc, SC bolus, read-out: Median Tmax, range over cohorts): 0.375 to 0.75 h
half-life ([5]; subcutaneous, 0.5 mg, 0.25 and 0.5 mg, read-out: Mean T1/2 at the highest doses): 3.77 to 4.27 h
dose excreted ([5]; sc, 0.001 mg, single SC bolus 0.001 mg, mean, read-out: Fe (urine)): 0%
dose excreted ([5]; sc, 0.004 mg, single SC bolus 0.004 mg, mean, read-out: Fe (urine)): 6.16%
dose excreted ([5]; sc, 0.01 mg, single SC bolus 0.01 mg, mean, read-out: Fe (urine)): 5.4%
dose excreted ([5]; sc, 0.04 mg, single SC bolus 0.04 mg, mean, read-out: Fe (urine)): 4.24%
dose excreted ([5]; sc, 0.1 mg, single SC bolus 0.1 mg, mean, read-out: Fe (urine)): 5.2%
dose excreted ([5]; sc, 0.25 mg, single 2-hour SC INF 0.25 mg, mean, read-out: Fe (urine)): 6.21%
dose excreted ([5]; sc, 0.25 mg, single SC bolus 0.25 mg, mean, read-out: Fe (urine)): 7.1%
dose excreted ([5]; sc, 0.5 mg, single 2-hour SC INF 0.5 mg, mean, read-out: Fe (urine)): 5.22%
dose excreted ([5]; sc, 0.5 mg, single SC bolus 0.5 mg, mean, read-out: Fe (urine)): 6.33%
dose excreted ([5]; sc, 0.004 to 0.5 mg, bolus and infusion, read-out: Mean Fe, range over cohorts): 4.24 to 7.1%
API-MA in urine ([5]; single SC bolus 0.001 mg): No API-MA was detected
Distribution ratio into blood cells ([6]; 0.01 μg/mL API-FB): 2.0%
Distribution ratio into blood cells ([6]; 0.1 μg/mL API-FB): 0.0%
Distribution ratio into blood cells ([6]; 1 μg/mL API-FB): 0.0%
Distribution ratio into blood cells ([6]; 10 μg/mL API-FB): 0.5%
Greatest percent decrease from baseline in PSA, individual patients ([7]; month 1, day 29, 6 mg dose group): 8% and 19%
Greatest percent decrease from baseline in PSA, individual patients ([7]; month 1, day 29, 12 mg dose group): 25% and 62%
Greatest percent decrease from baseline in PSA, individual patients ([7]; month 1, day 29, 24 mg dose group): 88% and 74% and 79%
Greatest reduction in PSA ([7]; month 2 day 29, a patient in the 24 mg dose group): 91%
Distribution ratio into blood cells ([8]; 0.01 μg/mL API-FB): 7.8%
Distribution ratio into blood cells ([8]; 0.1 μg/mL API-FB): 8.0%
Distribution ratio into blood cells ([8]; 1 μg/mL API-FB): 7.1%
Distribution ratio into blood cells ([8]; 10 μg/mL API-FB): 4.8%

CNC(=N)NCCC[C@H](NC(=O)[C@H](CC(C)C)NC(=O)NNC(=O)[C@H](Cc1ccccc1)NC(=O)[C@@H](NC(=O)[C@H](CC(N)=O)NC(=O)[C@@H]1C[C@@H](O)CN1C(=O)[C@@H](Cc1ccc(O)cc1)NC(C)=O)[C@@H](C)O)C(=O)N[C@@H](Cc1c[nH]c2ccccc12)C(N)=O [Compound 1, 2-(N-Acetyl-D-tyrosyl-trans-4-hydroxy-L-prolyl-L-asparaginyl-L-threonyl-L-phenylalanyl)-hydrazinocarbonyl-L-leucyl-Nω-methyl-L-arginyl-L-tryptophanamide] (Ac-[dY][Hyp]NTF[azaGly]L[Arg(Me)]W-NH2)
fraction unbound [9]: 0.267 to 0.447
bioavailability [10]: 92.4%
